Assay results from US10292395B2, “3H-pyrrolopyridine compound, N-oxide thereof or salt thereof, agricultural and horticultural insecticide comprising the compound and method for using the same” (Nihon Nohyaku Co., Ltd., priority 2015, dated 2019).

Legend:
Laodelphax striatella = assay: Insecticidal test on Laodelphax striatella (rice seedling dip); assay type: in vivo; settings: Laodelphax striatellus, 192 h, rice seedlings dipped 30 seconds, 3rd-instar larvae, 8 days after inoculation, read-out: insecticidal effect (corrected mortality rate), activity level
From the text: Insecticidal Test on Laodelphax striatella
The condensed heterocyclic compounds represented by the general formula (1) of the present invention or salts thereof were separately dispersed in water and diluted to 500 ppm, and rice plant seedlings (variety: Nihonbare) were dipped in the agrochemical dispersions for 30 seconds. After air-dried, each seedling was put into a separate glass test tube and inoculated with ten 3rd-instar larvae of Laodelphax striatella, and then the glass test tubes were capped with cotton plugs. At 8 days after the inoculation, the numbers of surviving larvae and dead larvae were counted, the corrected mortality rate was calculated according to the formula shown below, and the insecticidal effect was evaluated according to the criteria of Test Example 1. Corrected mortality rate (%)=100×(Survival rate in a non-treatment plot−Survival rate in a treatment plot)/Survival rate in a non-treatment plot [Math. 2]

Plutella xylostella = assay: Insecticidal test on Plutella xylostella (dip of Chinese cabbage seedlings with laid eggs); assay type: in vivo; settings: 144 h, seedlings with laid eggs dipped about 30 seconds, 25° C., 6 days after dip treatment, read-out: insecticidal effect (corrected mortality rate), activity level
From the text: Insecticidal Test on Plutella xylostella
Adults of Plutella xylostella were released onto Chinese cabbage seedlings and allowed to lay eggs thereon. At 2 days after the release of the adults, the Chinese cabbage seedlings with laid eggs were dipped for about 30 seconds in agrochemical dispersions diluted to 500 ppm, each of which contained a different condensed heterocyclic compound represented by the general formula (1) of the present invention as an active ingredient. After air-dried, the seedlings were kept in a thermostatic chamber at 25° C. At 6 days after the dip treatment, the number of hatched larvae per plot was counted, the mortality rate was calculated according to the formula shown below, and the insecticidal effect was evaluated according to the criteria of Test Example 1. This test was conducted in triplicate using 10 adults of Plutella xylostella per plot. Corrected mortality rate (%)=100×(Number of hatched larvae in a non-treatment plot−Number of hatched larvae in a treatment plot)/Number of hatched larvae in a non-treatment plot [Math. 3]

Row | Structure (SMILES) | mortality at 500 ppm (Laodelphax striatella) | mortality at 500 ppm (Plutella xylostella)
1 | CCS(=O)(=O)c1cc(C(F)(F)F)ccc1C1=Nc2cc(C(F)(F)F)cnc2C1(F)F [Compound 1-1] | 100% | 100%
2 | CCS(=O)(=O)c1cc(-c2ccc(F)cc2)cnc1C1=Nc2cc(C(F)(F)F)cnc2C1(F)F [Compound 1-19, 2-(3-Ethylsulfonyl-5-(4-fluorophenyl)pyridin-2-yl)-3,3-difluoro-6-trifluoromethyl-3H-pyrrolo[3,2-b]pyridine] | 100% | 100%
3 | CC[S+]([O-])c1cc(C(F)(F)F)cnc1C1=Nc2cc(C(F)(F)F)cnc2C1(F)F (stereo not shown) [Compound 1-9, 2-(3-Ethylsulfinyl-5-trifluoromethylpyridin-2-yl)-3,3-difluoro-6-trifluoromethyl-3H-pyrrolo[3,2-b]pyridine] | 100% | 100%
4 | CCS(=O)(=O)c1cc(C(F)(F)F)cnc1C1=Nc2cc(C(F)(F)F)cnc2C1(F)F [Compound 1-10, 2-(3-Ethylsulfonyl-5-trifluoromethylpyridin-2-yl)-3,3-difluoro-6-trifluoromethyl-3H-pyrrolo[3,2-b]pyridine] | 100% | 100%
5 | CCS(=O)(=O)c1cc(-c2cccc(C(F)(F)F)c2)cnc1C1=Nc2cc(C(F)(F)F)cnc2C1(F)F [Compound 1-20, 2-(3-Ethylsulfonyl-5-(3-trifluoromethylphenyl)pyridin-2-yl)-3,3-difluoro-6-trifluoromethyl-3H-pyrrolo[3,2-b]pyridine] | 100% | 100%
